Counter-ions that a name gives are not always drawn.
Columns and labels:
[1] = biological target: T1, hGluN1/hGluN2A (Homo sapiens, UniProt Q05586+Q12879); design: gene GRIN1; conditions: -60 mV; 1 mM L-glutamate, 100 µM glycine; pH 7.3
[2] = biological target: T2, human plasmatic butyrylcholinesterase (hBChE) (Homo sapiens, UniProt P06276); assay: biochemical
T2 construct: gene BCHE

[3] = biological target: T3, hGluN1/hGluN2B (Homo sapiens, UniProt Q05586+Q13224); assay: cell-based; design: gene GRIN1; cDNA vectors for human GluN1-1a and GluN2B co-transfected with GFP in HEK293 cells; diheteromeric receptor; whole-cell voltage-clamp electrophysiology, inhibition of steady-state L-glutamate-induced currents at -60 mV; conditions: HEK293; -60 mV, 1 mM L-glutamate
T3 sequence (Q13224 27-1484, other chains not shown): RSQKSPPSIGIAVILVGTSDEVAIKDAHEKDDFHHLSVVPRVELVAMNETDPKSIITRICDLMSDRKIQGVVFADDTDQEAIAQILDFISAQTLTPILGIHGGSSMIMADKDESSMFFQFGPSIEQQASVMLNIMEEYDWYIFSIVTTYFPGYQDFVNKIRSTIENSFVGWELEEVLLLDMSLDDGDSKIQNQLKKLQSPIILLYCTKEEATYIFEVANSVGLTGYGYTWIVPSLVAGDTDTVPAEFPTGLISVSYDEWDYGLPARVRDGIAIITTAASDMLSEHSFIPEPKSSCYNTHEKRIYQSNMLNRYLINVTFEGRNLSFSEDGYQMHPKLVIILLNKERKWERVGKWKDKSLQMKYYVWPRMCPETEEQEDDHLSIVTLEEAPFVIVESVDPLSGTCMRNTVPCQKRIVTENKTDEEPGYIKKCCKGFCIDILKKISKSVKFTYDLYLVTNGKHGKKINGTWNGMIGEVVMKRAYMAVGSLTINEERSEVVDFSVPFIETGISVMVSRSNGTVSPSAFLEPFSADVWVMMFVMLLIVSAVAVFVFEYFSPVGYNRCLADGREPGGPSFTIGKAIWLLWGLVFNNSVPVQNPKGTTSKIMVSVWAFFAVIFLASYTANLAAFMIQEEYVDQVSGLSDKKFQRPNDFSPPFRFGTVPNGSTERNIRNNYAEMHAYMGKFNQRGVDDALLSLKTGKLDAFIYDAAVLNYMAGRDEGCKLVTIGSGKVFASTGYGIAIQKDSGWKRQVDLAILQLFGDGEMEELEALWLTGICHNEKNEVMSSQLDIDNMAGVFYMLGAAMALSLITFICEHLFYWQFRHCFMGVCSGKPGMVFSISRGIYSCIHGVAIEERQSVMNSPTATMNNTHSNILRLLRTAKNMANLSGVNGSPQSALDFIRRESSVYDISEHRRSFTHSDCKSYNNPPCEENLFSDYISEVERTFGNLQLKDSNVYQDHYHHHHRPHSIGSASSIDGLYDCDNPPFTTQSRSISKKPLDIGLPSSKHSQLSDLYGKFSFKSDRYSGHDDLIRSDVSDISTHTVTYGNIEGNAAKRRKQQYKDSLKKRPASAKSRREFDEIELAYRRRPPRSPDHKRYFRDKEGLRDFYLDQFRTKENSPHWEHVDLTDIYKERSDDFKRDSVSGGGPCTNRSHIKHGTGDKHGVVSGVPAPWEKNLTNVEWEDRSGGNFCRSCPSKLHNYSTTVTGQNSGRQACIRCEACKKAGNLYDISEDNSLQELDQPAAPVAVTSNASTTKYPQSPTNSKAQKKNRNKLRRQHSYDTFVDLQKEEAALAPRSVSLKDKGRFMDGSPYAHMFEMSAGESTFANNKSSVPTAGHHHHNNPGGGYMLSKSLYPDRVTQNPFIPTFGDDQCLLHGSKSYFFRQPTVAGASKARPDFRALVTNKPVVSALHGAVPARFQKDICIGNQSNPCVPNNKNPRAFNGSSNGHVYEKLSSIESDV
Method: (§1) First, we determined the relative inhibition of all novel compounds on the two major diheteromeric NMDA receptor subtypes in the adult cortex – GluN1/GluN2A and GluN1/GluN2B [1] – using a clinically relevant concentration (3 µM). We kept the measured cells at a membrane potential of -60 mV, and the values of relative inhibition by the compounds were calculated from the L-glutamate-induced responses of human versions of the GluN1/GluN2A (hGluN1/hGluN2A) and GluN1/GluN2B (hGluN1/hGluN2B) receptors obtained under steady-state conditions. […] Specifically, in the case of hGluN1/hGluN2A receptors, we obtained relative inhibition values ranging from ∼5% for compound 3h to ∼93% for compound 6f, while for hGluN1/hGluN2B receptors, we measured values ranging from ∼3% for compound 3i to ∼92% for compound 6g at a fixed dose of 3 µM of the tested compound. […] It can be assumed that the positive and negative effects of a given inhibitor of the NMDA receptor in vivo are caused by their affinity and the kinetics of inhibition, in addition to their availability in the CNS. […] In further experiments, we generated concentration-response curves for 6f (0.03-10 µM) and 3l (0.3-300 µM) on both hGluN1/hGluN2A and hGluN1/hGluN2B receptors at negative (-60 mV) and positive (40 mV) membrane potentials (Fig. 2A-D). […] (A, C) Representative whole-cell voltage-clamp recordings of HEK293 cells expressing hGluN1/hGluN2A or hGluN1/hGluN2B receptors showing the inhibitory effects of compound 6f (0.03 - 300 µM) and compound 3l (0.3 - 300 µM) at membrane potentials of 40 mV (A) and -60 mV (C). Glu = 1 mM L-glutamate. (B, D) Normalized inhibitory concentration-response curves for compound 6f and compound 3l for hGluN1/hGluN2A and hGluN1/hGluN2B receptors at membrane potentials of 40 mV (B) and -60 mV (D). Concentration-response curves were fitted using Equation 1; the resulting IC50 values, Hill coefficients, and the numbers of cells measured for each membrane potential are shown in Table 3.

[4] = biological target: T4, human recombinant AChE (hAChE) (Homo sapiens, UniProt P22303); assay: modified Ellman's method; type: biochemical
T4 construct: recombinant enzyme purchased from Merck
T4 sequence (P22303 32-614): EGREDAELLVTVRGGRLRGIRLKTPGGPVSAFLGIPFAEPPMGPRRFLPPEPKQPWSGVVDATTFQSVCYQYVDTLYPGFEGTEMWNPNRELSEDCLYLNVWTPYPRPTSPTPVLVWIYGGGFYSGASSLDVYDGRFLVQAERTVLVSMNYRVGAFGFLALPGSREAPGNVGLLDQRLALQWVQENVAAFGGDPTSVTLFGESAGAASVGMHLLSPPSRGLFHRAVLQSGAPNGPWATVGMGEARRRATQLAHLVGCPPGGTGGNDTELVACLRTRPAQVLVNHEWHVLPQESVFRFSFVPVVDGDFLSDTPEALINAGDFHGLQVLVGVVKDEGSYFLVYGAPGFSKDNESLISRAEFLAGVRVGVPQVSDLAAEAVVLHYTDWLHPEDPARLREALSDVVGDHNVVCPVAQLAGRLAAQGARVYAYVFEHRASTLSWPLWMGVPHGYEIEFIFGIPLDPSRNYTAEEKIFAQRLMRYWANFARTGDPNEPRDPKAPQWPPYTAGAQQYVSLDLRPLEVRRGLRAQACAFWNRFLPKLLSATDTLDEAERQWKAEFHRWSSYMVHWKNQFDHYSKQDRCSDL

[5] = biological target: T1, hGluN1/hGluN2A; assay: cell-based; design: gene GRIN1; cDNA vectors for human GluN1-1a and GluN2A co-transfected with GFP in HEK293 cells; diheteromeric receptor; whole-cell voltage-clamp electrophysiology, inhibition of steady-state L-glutamate-induced currents at -60 mV; conditions: HEK293; -60 mV, 1 mM L-glutamate
Method: as §1

[6] = biological target: T3, hGluN1/hGluN2B; design: gene GRIN1; conditions: -60 mV; 1 mM L-glutamate, 100 µM glycine; pH 7.3

T2 sequence (P06276 29-602): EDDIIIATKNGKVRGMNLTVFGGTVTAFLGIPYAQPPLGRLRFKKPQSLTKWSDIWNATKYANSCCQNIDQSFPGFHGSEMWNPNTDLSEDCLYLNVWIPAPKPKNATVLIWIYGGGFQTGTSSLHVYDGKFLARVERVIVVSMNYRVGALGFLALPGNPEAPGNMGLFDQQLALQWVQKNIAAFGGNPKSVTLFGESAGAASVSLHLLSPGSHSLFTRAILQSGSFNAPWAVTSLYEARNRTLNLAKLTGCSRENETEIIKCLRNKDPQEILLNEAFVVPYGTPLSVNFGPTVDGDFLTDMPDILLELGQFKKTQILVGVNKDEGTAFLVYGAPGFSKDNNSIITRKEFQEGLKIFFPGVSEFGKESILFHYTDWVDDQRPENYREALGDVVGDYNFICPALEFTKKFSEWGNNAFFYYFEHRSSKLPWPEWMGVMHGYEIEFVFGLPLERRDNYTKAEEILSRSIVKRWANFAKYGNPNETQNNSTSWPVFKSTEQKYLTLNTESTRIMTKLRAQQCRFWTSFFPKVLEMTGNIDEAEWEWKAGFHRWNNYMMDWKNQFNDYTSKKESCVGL
T1 sequence (Q12879 23-1464, other chains not shown): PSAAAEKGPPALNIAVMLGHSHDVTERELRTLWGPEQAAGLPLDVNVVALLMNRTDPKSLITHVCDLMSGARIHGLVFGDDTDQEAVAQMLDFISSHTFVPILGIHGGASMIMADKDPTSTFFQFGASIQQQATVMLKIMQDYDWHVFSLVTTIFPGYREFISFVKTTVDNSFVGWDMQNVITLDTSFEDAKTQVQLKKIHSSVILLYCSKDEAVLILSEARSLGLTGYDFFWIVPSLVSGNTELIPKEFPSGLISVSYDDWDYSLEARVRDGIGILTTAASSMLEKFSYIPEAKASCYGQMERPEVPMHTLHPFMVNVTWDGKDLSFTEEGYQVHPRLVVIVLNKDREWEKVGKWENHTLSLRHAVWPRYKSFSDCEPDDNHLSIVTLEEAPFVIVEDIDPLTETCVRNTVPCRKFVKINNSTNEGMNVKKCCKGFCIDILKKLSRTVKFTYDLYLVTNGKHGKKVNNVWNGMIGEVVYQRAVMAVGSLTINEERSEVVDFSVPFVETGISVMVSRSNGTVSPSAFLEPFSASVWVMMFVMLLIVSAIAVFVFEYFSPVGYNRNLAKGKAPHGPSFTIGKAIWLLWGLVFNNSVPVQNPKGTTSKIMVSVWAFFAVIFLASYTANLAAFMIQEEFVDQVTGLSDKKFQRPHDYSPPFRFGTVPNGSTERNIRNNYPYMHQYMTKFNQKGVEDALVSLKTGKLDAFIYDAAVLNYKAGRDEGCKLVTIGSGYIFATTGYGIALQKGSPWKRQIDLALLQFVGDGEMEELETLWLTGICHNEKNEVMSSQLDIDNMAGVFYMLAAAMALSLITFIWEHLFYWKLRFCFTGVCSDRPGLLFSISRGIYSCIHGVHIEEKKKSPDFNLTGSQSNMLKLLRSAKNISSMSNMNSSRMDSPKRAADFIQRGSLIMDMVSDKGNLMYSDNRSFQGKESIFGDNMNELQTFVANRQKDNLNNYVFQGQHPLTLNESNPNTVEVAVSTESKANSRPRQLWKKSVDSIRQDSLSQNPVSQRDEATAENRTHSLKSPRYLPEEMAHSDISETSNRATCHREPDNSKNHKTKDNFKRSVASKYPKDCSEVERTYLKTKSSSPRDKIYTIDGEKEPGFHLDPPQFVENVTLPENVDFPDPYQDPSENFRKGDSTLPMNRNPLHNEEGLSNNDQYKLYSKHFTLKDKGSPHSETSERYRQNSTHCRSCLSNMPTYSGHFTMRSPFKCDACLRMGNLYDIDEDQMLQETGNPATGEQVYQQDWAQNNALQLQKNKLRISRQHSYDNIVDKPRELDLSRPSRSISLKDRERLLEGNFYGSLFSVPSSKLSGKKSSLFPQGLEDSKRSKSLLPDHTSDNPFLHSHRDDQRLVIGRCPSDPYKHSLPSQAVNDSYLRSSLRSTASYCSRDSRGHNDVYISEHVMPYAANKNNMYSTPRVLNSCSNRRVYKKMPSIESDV

Structure (SMILES) | RI (%) at 3 μM [1] | IC50 [2] | inhibition at 3 µM [3] | IC50 [4] | inhibition at 3 µM [5] | RI (%) at 3 μM [6]
CNC1c2ccccc2CCc2ccccc21 [3a, N-methyl-10,11-dihydro-5H-dibenzo[a,d][7]annulen-5-amine hydrochloride] | 82.34 ± 3.25% | > 100 µM | 71 ± 1.75% | > 100 µM |  | 
CCNC1c2ccccc2CCc2ccccc21 [3b, N-ethyl-10,11-dihydro-5H-dibenzo[a,d][7]annulen-5-amine hydrochloride] |  | > 100 µM | 51.8 ± 3.39% | > 100 µM | 34 ± 4.6% | 
CC(C)NC1c2ccccc2CCc2ccccc21 [3c, N-isopropyl-10,11-dihydro-5H-dibenzo[a,d][7]annulen-5-amine hydrochloride] |  | > 100 µM | 76.9 ± 3.57% | > 100 µM | 52.2 ± 5.23% | 
c1ccc2c(c1)CCc1ccccc1C2NC1CC1 [3d, N-cyclopropyl-10,11-dihydro-5H-dibenzo[a,d][7]annulen-5-amine hydrochloride] |  | > 100 µM | 53.6 ± 3.16% | > 100 µM | 40.1 ± 3.42% | 
CCCCNC1c2ccccc2CCc2ccccc21 [3e, N-butyl-10,11-dihydro-5H-dibenzo[a,d][7]annulen-5-amine hydrochloride] |  | > 100 µM | 85.8 ± 2.19% | > 100 µM | 76.4 ± 4.03% | 
CC(C)CNC1c2ccccc2CCc2ccccc21 [3f, N-isobutyl-10,11-dihydro-5H-dibenzo[a,d][7]annulen-5-amine hydrochloride] |  | > 100 µM |  | > 100 µM | 76.8 ± 2.99% | 91.62 ± 0.99%
c1ccc2c(c1)CCc1ccccc1C2NC1CCCCC1 [3g, N-cyclohexyl-10,11-dihydro-5H-dibenzo[a,d][7]annulen-5-amine hydrochloride] |  | 14.4 ± 1.3 µM |  |  | 79.4 ± 2.06% | 85.95 ± 3.13%
c1ccc2c(c1)CCc1ccccc1C2N1CCCCC1 [3h, 1-(10,11-dihydro-5H-dibenzo[a,d][7]annulen-5-yl)piperidine hydrochloride] |  | > 100 µM | 5.2 ± 1.56% | > 100 µM | 5.4 ± 1.39% | 
c1ccc2c(c1)CCc1ccccc1C2N1CCOCC1 [3i, 4-(10,11-dihydro-5H-dibenzo[a,d][7]annulen-5-yl)morpholine hydrochloride] |  | > 100 µM | 3.43 ± 1.33% | > 100 µM | 6.78 ± 1.67% | 
COCCNC1c2ccccc2CCc2ccccc21 [3j, N-(2-methoxyethyl)-10,11-dihydro-5H-dibenzo[a,d][7]annulen-5-amine hydrochloride] |  | > 100 µM | 66.6 ± 3.9% | > 100 µM | 34.9 ± 4.8% | 
c1ccc2c(c1)CCc1ccccc1C2N1CCCC1 [3k, 1-(10,11-dihydro-5H-dibenzo[a,d][7]annulen-5-yl)pyrrolidine hydrochloride] |  | > 100 µM | 62.1 ± 3.44% | > 100 µM | 49.8 ± 3.27% | 
CN1CCN(C2c3ccccc3CCc3ccccc32)CC1 [3m, 1-(10,11-dihydro-5H-dibenzo[a,d][7]annulen-5-yl)-4-methylpiperazine dihydrochloride] |  | > 100 µM | 9.49 ± 2.17% | > 100 µM | 9.7 ± 2.41% | 
CCN(CC)C1c2ccccc2CCc2ccccc21 [3n, N,N-diethyl-10,11-dihydro-5H-dibenzo[a,d][7]annulen-5-amine hydrochloride] |  | > 100 µM | 75 ± 3.14% | > 100 µM | 68.4 ± 4.84% | 
CCN1CCN(C2c3ccccc3CCc3ccccc32)CC1 [3o, 1-(10,11-dihydro-5H-dibenzo[a,d][7]annulen-5-yl)-4-ethylpiperazine dihydrochloride] |  | > 100 µM | 5.22 ± 1.49% | > 100 µM | 7.64 ± 0.84% | 
CNC1c2ccccc2C=Cc2ccccc21 [6a, N-methyl-5H-dibenzo[a,d][7]annulen-5-amine hydrochloride] |  | > 100 µM | 68.9 ± 3.57% | > 100 µM | 54.3 ± 3.11% | 
CCNC1c2ccccc2C=Cc2ccccc21 [6b, N-ethyl-5H-dibenzo[a,d][7]annulen-5-amine hydrochloride] |  | > 100 µM | 59.9 ± 3.15% | > 100 µM | 39.9 ± 4.78% | 
CC(C)NC1c2ccccc2C=Cc2ccccc21 [6c, N-isopropyl-5H-dibenzo[a,d][7]annulen-5-amine hydrochloride] |  | > 100 µM | 76 ± 2.22% | > 100 µM | 75.6 ± 2.36% | 
C1=Cc2ccccc2C(NC2CC2)c2ccccc21 [6d, N-cyclopropyl-5H-dibenzo[a,d][7]annulen-5-amine hydrochloride] |  | > 100 µM | 57.2 ± 3.27% | > 100 µM | 45 ± 3.55% | 
CCCCNC1c2ccccc2C=Cc2ccccc21 [6e, N-butyl-5H-dibenzo[a,d][7]annulen-5-amine hydrochloride] |  | > 100 µM | 79.2 ± 2.84% | > 100 µM | 81.1 ± 2.62% | 
C1=Cc2ccccc2C(NC2CCCCC2)c2ccccc21 [6g, N-cyclohexyl-5H-dibenzo[a,d][7]annulen-5-amine hydrochloride] | 92.12 ± 1.48% | 8.5 ± 0.4 µM |  |  |  | 92.37 ± 1.82%
C1=Cc2ccccc2C(N2CCOCC2)c2ccccc21 [6i, 4-(5H-dibenzo[a,d][7]annulen-5-yl)morpholine hydrochloride] |  | > 100 µM | 57.6 ± 3.47% | > 100 µM | 31.9 ± 4.16% | 
COCCNC1c2ccccc2C=Cc2ccccc21 [6j, N-(2-methoxyethyl)-5H-dibenzo[a,d][7]annulen-5-amine hydrochloride] |  | > 100 µM | 60 ± 4.39% | > 100 µM | 35.6 ± 1.09% | 
C1=Cc2ccccc2C(N2CCCC2)c2ccccc21 [6k, 1-(5H-dibenzo[a,d][7]annulen-5-yl)pyrrolidine hydrochloride] |  | > 100 µM | 85.53 ± 0.21% | > 100 µM | 48.6 ± 2.99% | 
OCCNC1c2ccccc2C=Cc2ccccc21 [6l, 2-((5H-dibenzo[a,d][7]annulen-5-yl)amino)ethanol hydrochloride] |  | > 100 µM | 48.8 ± 4.13% | > 100 µM | 38.2 ± 3.8% | 

— publication doi:10.1101/2024.06.17.599304v1, “Dizocilpine derivatives with neuroprotective effect lacking the psychomimetic side effects” (biorxiv, 2024)
